Test results from ChEMBL document CHEMBL1201862, “PubChem BioAssay data set” (2004).
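Following 48 hours of exposure in 96-well plates, responses at five concentrations were used to interpolate endpoints linearly. GI50 is the concentration that inhibits growth by half.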 Activity calls are given as the source filed them. No stated cut-off is given here; in the data, active = GI50 up to about 1.1 µM and inactive = higher.

Legend:
Assay in all cases: NCI anticancer screen, dose series, 48 h
[1] = tested on: HT-29
[2] = tested on: SNB-19
[3] = tested on: M14
[4] = tested on: MOLT-4
[5] = tested on: UACC-257
[6] = tested on: HOP-92
[7] = tested on: OVCAR-4
[8] = tested on: TK-10
[9] = tested on: SK-OV-3
[10] = tested on: CAKI-1
[11] = tested on: BT-549
[12] = tested on: MCF7
[13] = tested on: SK-MEL-2
[14] = tested on: OVCAR-3
[15] = tested on: KM12
[16] = tested on: ACHN
[17] = tested on: DU-145
[18] = tested on: SR

Measured: GI50

O=C1Nc2ccccc2/C1=C\c1c(-c2ccccc2)nc2n1CCS2
inactive: [1] 19.5 µM | [2] 28.5 µM | [3] 30.3 µM | [4] 25.8 µM | [5] 19.5 µM | [6] 39.3 µM | [7] 29 µM | [8] 13.9 µM | [9] 21.4 µM | [10] 21.3 µM | [11] 20 µM | [12] 12.5 µM | [13] 13.3 µM | [14] 15.6 µM | [15] 16.8 µM | [16] 23.6 µM | [17] 13.6 µM

CC(C)C1(C)N=C(C(F)(F)F)c2cc(C(=O)C(F)(F)F)c3ccccc3c2N1 (centres undefined)
inactive: [1] 3.44 µM | [2] 4.14 µM | [3] 4.99 µM | [4] 3.07 µM | [5] 6.55 µM | [7] 4.91 µM | [8] 4.51 µM | [9] 15 µM | [10] 3.34 µM | [11] 3.08 µM | [18] 4.39 µM | [12] 4.03 µM | [13] 2.51 µM | [14] 3.08 µM | [15] 3.31 µM | [16] 3.53 µM | [17] 3.71 µM

NC(Cc1ccc(O)cn1)C(=O)NC(C(=O)O)c1ccccc1 (centres undefined)
inactive: [1] > 100 µM | [2] > 100 µM | [4] > 100 µM | [5] > 100 µM | [6] > 100 µM | [7] > 100 µM | [8] > 100 µM | [10] > 100 µM | [11] > 100 µM | [18] > 100 µM | [12] > 100 µM | [14] > 100 µM | [15] > 100 µM | [16] > 100 µM | [17] > 100 µM

Cc1ccc2cccc3c2c1CC1(C3=O)S(=O)(=O)OCCOS1(=O)=O
inactive: [1] > 100 µM | [2] > 100 µM | [3] > 100 µM | [4] > 100 µM | [5] > 100 µM | [6] > 100 µM | [7] > 100 µM | [8] > 100 µM | [9] > 100 µM | [10] > 100 µM | [11] > 100 µM | [12] > 100 µM | [13] > 100 µM | [14] > 100 µM | [15] > 100 µM | [16] > 100 µM | [17] > 100 µM

CC(C)=CCNc1ncnc2c1ncn2CCC(=O)OC(C)(C)C
inactive: [1] > 100 µM | [2] > 100 µM | [3] > 100 µM | [4] 14.2 µM | [6] 49.7 µM | [7] 4.81 µM | [8] > 100 µM | [9] 26.2 µM | [11] 37.5 µM | [18] 52.2 µM | [12] > 100 µM | [14] > 100 µM | [15] > 100 µM | [16] > 100 µM | [17] > 100 µM

CC(C)C1=C(Cc2ccccc2)C(=O)O/C1=C\c1ccc(O)c(Cl)c1
inactive: [1] 18.8 µM | [2] 11.5 µM | [3] 17.5 µM | [4] 10.9 µM | [5] 18.8 µM | [7] 14.7 µM | [8] 17.7 µM | [9] 19.5 µM | [10] 18.6 µM | [11] 22.2 µM | [18] 10.4 µM | [12] 15.7 µM | [14] 14.8 µM | [15] 18.1 µM | [16] 14.9 µM | [17] 18.2 µM

CC12CCC(/C(=N/c3cc(C(F)(F)F)cc(C(F)(F)F)c3)C1=O)C2(C)C (centres undefined)
inactive: [1] 68.5 µM | [2] 49.4 µM | [3] 30.6 µM | [4] 17.4 µM | [5] 46.6 µM | [7] 44 µM | [8] 37.2 µM | [9] > 100 µM | [10] 44 µM | [11] 32.5 µM | [18] 18.8 µM | [12] 28.4 µM | [13] 18.8 µM | [14] 33.7 µM | [15] 26.4 µM | [16] > 100 µM | [17] 40.6 µM

COc1ccc(-c2cc(O)c3nc4ccccc4n3c2)cc1
inactive: [1] > 100 µM | [2] > 100 µM | [3] > 100 µM | [4] > 100 µM | [5] > 100 µM | [6] > 100 µM | [7] > 100 µM | [8] > 100 µM | [10] > 100 µM | [11] > 100 µM | [18] > 100 µM | [12] > 100 µM | [14] > 100 µM | [15] > 100 µM | [17] > 100 µM

CC1(C)Oc2ccc3c(=O)cc(-c4ccccc4)oc3c2C1C(=O)O (centres undefined)
inactive: [1] > 100 µM | [3] > 100 µM | [4] > 100 µM | [5] > 100 µM | [7] > 100 µM | [8] > 100 µM | [9] > 100 µM | [10] > 100 µM | [11] > 100 µM | [18] > 100 µM | [12] > 100 µM | [13] > 100 µM | [14] > 100 µM | [17] > 100 µM

O=C1N/C(=N/N=C/c2cccs2)N/C1=C\c1ccco1
inactive: [1] 39.6 µM | [2] 81.5 µM | [3] 8.57 µM | [4] > 100 µM | [5] 55.7 µM | [6] > 100 µM | [7] > 100 µM | [8] > 100 µM | [9] 21.9 µM | [10] > 100 µM | [11] 70 µM | [12] 30.3 µM | [13] 7.29 µM | [14] 22.5 µM | [15] 34 µM | [16] > 100 µM | [17] > 100 µM

Cc1cc2ccccc2n2c1nc1ccc(O)cc12
inactive: [1] > 10 µM | [2] > 10 µM | [3] > 10 µM | [4] 5.69 µM | [5] > 10 µM | [7] > 10 µM | [8] > 10 µM | [9] > 10 µM | [10] > 10 µM | [11] > 10 µM | [18] 9.73 µM | [12] > 10 µM | [13] > 10 µM | [14] > 10 µM | [15] > 10 µM | [16] 9.91 µM | [17] > 10 µM

O=S(=O)(O)CCCC1S(=O)(=O)OCCOS1(=O)=O
inactive: [1] > 100 µM | [2] > 100 µM | [3] > 100 µM | [5] > 100 µM | [6] > 100 µM | [7] > 100 µM | [8] > 100 µM | [9] > 100 µM | [10] > 100 µM | [11] > 100 µM | [18] > 100 µM | [12] > 100 µM | [14] > 100 µM | [15] > 100 µM | [16] > 100 µM | [17] > 100 µM

O=C1/C(=C/c2ccccc2)CCc2ccccc21
inactive: [1] 16.6 µM | [2] 10.4 µM | [3] 20.1 µM | [4] 12.2 µM | [5] 16.1 µM | [7] 14.8 µM | [8] 15.2 µM | [9] 25.6 µM | [10] 17.7 µM | [11] 16.2 µM | [18] 9.71 µM | [12] 5.15 µM | [14] 16.6 µM | [15] 18 µM | [16] 17.2 µM | [17] 16.2 µM
